Experimental data reported in PMC8126888 (RSC Medicinal Chemistry, 2020).
Read-outs that look alike come from different tables or passages of the source.

Key:
[1] = in vitro; conditions: human, HepG2 cells
[2] = in vitro; conditions: human, HFF-1 cells
[3] = test system: Trypanosoma cruzi, Tulahuen CL2, beta-galactosidase strain; experiment: microbe, parasite or virus in culture; conditions: MRC5, read-out: T. cruzi Tulahuen C4 (LacZ) IC50
[4] = in vitro; conditions: human
[5] = in vitro; conditions: mouse
[6] = physchem; conditions: HPLC, Ascentis Express RP Amide column, pH 7.4, eLogD, experimental
[7] = in vitro; conditions: human; remark: listed apart in the source
[8] = test system: Leishmania infantum (MHOM/MA/67/ITMAP-263) intracellular amastigotes in THP-1; experiment: microbe, parasite or virus in culture; conditions: THP-1, read-out: L. infantum MHOM/MA/67/ITMAP263 intracellular amastigotes THP-1 cells IC50
[9] = in vitro; conditions: PAMPA
[10] = test system: primary peritoneal mouse macrophages (PMM); experiment: cells; conditions: Macrophage, read-out: PMM IC50
[11] = in vitro; conditions: human, THP-1 cells differentiated with PMA
[12] = test system: Leishmania infantum MHOM/MA(BE)/67/ITMAP263 intracellular amastigotes; experiment: microbe, parasite or virus in culture; conditions: Macrophage, in Mus musculus
[13] = test system: L. donovani MHOM/ET/67/L82 intracellular amastigotes; experiment: microbe, parasite or virus in culture; conditions: Leishmania donovani, read-out: L. donovani MHOM/ET/67/L82 intracellular amastigotes IC50
[14] = test system: L. donovani MHOM/SD/62/1SCL2D intracellular amastigotes; experiment: microbe, parasite or virus in culture; conditions: Leishmania donovani, read-out: L. donovani MHOM/SD/62/1SCL2D intracellular amastigotes IC50
[15] = test system: axenic L. don. amastigotes (MHOM/SD/62/1S-CL2, LdBOB); experiment: microbe, parasite or virus in culture; conditions: Leishmania donovani
[16] = in vitro; conditions: human, HepG2 cells; remark: listed apart in the source
[17] = microsomes, pH 7.4, MLM CLint, mouse liver microsomes
[18] = microsomes, pH 7.4, HLM CLint, human liver microsomes
[19] = read-out: L. Inf. pIC50, L. infantum intracellular amastigotes (converted)
[20] = read-out: L. infantum MHOM/MA(BE)/67/ITMAP263 intracellular amastigotes IC50, intracellular amastigotes
[21] = read-out: L. Inf. pIC50 (converted)
[22] = read-out: L. infantum MHOM/MA(BE)/67/ITMAP263 intracellular amastigotes IC50
[23] = read-out: L. donovani MHOM/SD/62/1SCL2D axenic-cidal amastigotes IC50
[24] = read-out: L. don. pIC50 (converted)
[25] = s9, pH 7.4, Clint mouse mic., Fig. 2, mouse microsomes (S9 fractions)
[26] = s9, pH 7.4, Clint human mic., Fig. 2, human microsomes (S9 fractions)
[27] = read-out: L. inf. pIC50, intracellular amastigotes in PMM (converted), geometric mean of a minimum of two experiments ± standard error

Structure (SMILES) | CC50 [1] [µM] | CC50 [2] [µM] | IC50 [3] [µM] | CC50 at 3 days [4] [µM] | chromatographic logD [6] | IC50 [8] [µM] | IC50 [10] [µM] | CC50 at 120 h [11] [µM] | IC50 [12, 19] [µM] | IC50 [12, 20] [µM] | IC50 [13] [µM] | IC50 [12, 21] [µM] | IC50 [12, 22] [µM] | other results
COCCN(Cc1ccccc1)S(=O)(=O)c1c(OC)ccc(Cl)c1S(C)(=O)=O [DNDI0003578381] | > 64 | > 64 | > 64 | > 64 | 2.6 | > 64 | > 64 | > 64 | 51.3 | 50.8 | – | – | – | microsomal CLint at 0.5 μM [5, 17]: 176 µL/min/mg; microsomal CLint at 0.5 μM [7, 18]: 51 µL/min/mg; Papp [9]: 146 nm/s
COc1ccc(S(N)(=O)=O)cc1S(=O)(=O)N(Cc1ccccc1)Cc1ccccc1 [DNDI0003578385] | > 64 | 22.2 | 4.66 | 13.3 | 3.5 | 5.75 | > 64 | > 64 | 0.562 | 0.56 | – | – | – | microsomal CLint at 0.5 μM [5, 17]: 366 µL/min/mg; microsomal CLint at 0.5 μM [7, 18]: 58 µL/min/mg; Papp [9]: 37.6 nm/s
CCCOc1cc(C)c(Cl)cc1S(=O)(=O)NCc1cccs1 [DNDI0002572626] | – | – | > 32 | > 32 | – | – | > 32 | – | – | – | > 32 | 25.1 | 25.4 | –
COc1cc(S(=O)(=O)NC(C)c2ccccc2)c(OC)cc1C (stereo not drawn) [DNDI0002622495] | – | – | > 32 | > 32 | – | – | > 32 | – | – | – | > 32 | > 32 | > 32 | –
CCCCOc1cc(C)c(Cl)cc1S(=O)(=O)NCc1cccnc1 [DNDI0002558122] | – | – | – | > 32 | – | – | > 32 | – | – | – | 25.4 | 16.6 | 16.6 | –
CCCCOc1cc(C)c(Cl)cc1S(=O)(=O)NCc1cccs1 [DNDI0002620367] | – | – | – | 4.56 | – | – | > 32 | > 50 | – | – | 5.38 | 0.794 | 0.79 | IC50 [14]: 22 µM; IC50 [15, 23]: 11 µM; CC50 [16]: > 50 µM
COc1ccc([S+](C)[O-])cc1S(=O)(=O)N(Cc1ccccc1)Cc1ccccc1 (stereo not drawn) [DNDI0003578382] | > 64 | > 64 | 16.9 | 21.3 | 3.6 | 11.5 | > 64 | > 64 | 0.589 | 0.59 | – | – | – | microsomal CLint at 0.5 μM [5, 17]: 397 µL/min/mg; microsomal CLint at 0.5 μM [7, 18]: 125 µL/min/mg; Papp [9]: 140 nm/s
CCCCCOc1cc(C)c(Cl)cc1S(=O)(=O)NCc1cccs1 [Compound 7] | – | – | – | – | – | – | – | – | – | – | – | – | – | IC50 [15, 24]: 4.37 µM; microsomal CLint at 0.5 μM [5, 25]: 693 µL/min/mg; microsomal CLint at 0.5 μM [7, 26]: 624 µL/min/mg; IC50 [12, 27]: 0.447 µM
C[S+]([O-])c1c(Cl)ccc2c1S(=O)(=O)N(Cc1ccccc1)CCO2 (stereo not drawn) [DNDI0003578383] | > 64 | > 64 | 29.3 | > 64 | 3 | > 64 | > 64 | > 64 | 47.9 | 47.9 | – | – | – | microsomal CLint at 0.5 μM [5, 17]: 423 µL/min/mg; microsomal CLint at 0.5 μM [7, 18]: 33 µL/min/mg; Papp [9]: 220 nm/s
CCCN(Cc1ccc(F)cc1)S(=O)(=O)c1cc([S+](C)[O-])ccc1OC (stereo not drawn) [DNDI0003578384] | > 64 | > 64 | 38.5 | > 64 | 3.1 | > 64 | > 64 | > 64 | 11 | 11 | – | – | – | microsomal CLint at 0.5 μM [5, 17]: 437 µL/min/mg; microsomal CLint at 0.5 μM [7, 18]: 67 µL/min/mg; Papp [9]: 186 nm/s
O=S1(=O)c2ccccc2[C@H](O)[C@H](Cc2ccccc2)N1Cc1ccccc1 [DNDI0003578379] | > 64 | 27 | 6.7 | 29.7 | 3.9 | 12.1 | > 64 | 39.4 | 13.5 | 13.5 | – | – | – | –
CCCOc1cc(C)c(C)cc1S(=O)(=O)NCC1CCCO1 (stereo not drawn) [DNDI0002622936] | – | – | > 32 | > 32 | – | – | > 32 | – | – | – | > 32 | 25.1 | 25.4 | –
O=S1(=O)c2ccccc2[C@H](O)[C@@H](Cc2ccccc2)N1Cc1ccccc1 [DNDI0003578378] | 63.9 | > 64 | 7.67 | > 64 | 4.2 | 19.5 | > 64 | 39.7 | 8.91 | 8.88 | – | – | – | –
COc1cc(S(=O)(=O)N(Cc2ccccc2)Cc2ccccc2)c(OC)cc1C [Compound 6] | – | – | – | – | – | – | – | – | – | – | – | – | – | IC50 [15, 24]: 1.51 µM; microsomal CLint at 0.5 μM [5, 25]: 1080 µL/min/mg; microsomal CLint at 0.5 μM [7, 26]: 828 µL/min/mg; IC50 [12, 27]: 0.501 µM
COc1cc(S(=O)(=O)NCc2ccccc2)c(OC)cc1C [DNDI0002564850] | – | – | > 32 | > 32 | – | – | > 32 | – | – | – | > 32 | > 32 | > 32 | –
CCCCCOc1cc(C)c(Cl)cc1S(=O)(=O)NCc1ccco1 [DNDI0002567970] | – | – | – | 11.7 | – | – | > 32 | > 50 | – | – | 4.76 | 1.07 | 1.08 | IC50 [14]: 48 µM; IC50 [15, 23]: 12 µM; CC50 [16]: > 50 µM
CCCOc1cc(C)c(C)cc1S(=O)(=O)NC1CCCC1 [DNDI0002550535] | – | – | > 32 | > 32 | – | – | > 32 | – | – | – | > 32 | > 32 | > 32 | –
CCCCCOc1cc(C)c(C)cc1S(=O)(=O)NC1CCCC1 [Compound 8] | – | – | – | – | – | – | – | – | – | – | – | – | – | IC50 [15, 24]: 12 µM; microsomal CLint at 0.5 μM [5, 25]: 416 µL/min/mg; microsomal CLint at 0.5 μM [7, 26]: 567 µL/min/mg; IC50 [12, 27]: 0.589 µM
